According to patent US20260334439A1, “BCAT2 INHIBITORS” (Agios Pharmaceuticals, Inc., priority 2023, published 2026):

Assays:
BCAT2 [1] = target: T1, BCAT2 (Homo sapiens, UniProt O15382); assay: BCAT2 cell inhibition using engineered A549 cells (MUT KO, BCAT1 KO; 13C6-KMV formation by LC-MS/MS); assay type: cell-based; design: expressed endogenous BCAT2; endogenous in cells; host or cells: A549 cells, MUT knockout and BCAT1 knockout
T1 sequence (O15382 28-392): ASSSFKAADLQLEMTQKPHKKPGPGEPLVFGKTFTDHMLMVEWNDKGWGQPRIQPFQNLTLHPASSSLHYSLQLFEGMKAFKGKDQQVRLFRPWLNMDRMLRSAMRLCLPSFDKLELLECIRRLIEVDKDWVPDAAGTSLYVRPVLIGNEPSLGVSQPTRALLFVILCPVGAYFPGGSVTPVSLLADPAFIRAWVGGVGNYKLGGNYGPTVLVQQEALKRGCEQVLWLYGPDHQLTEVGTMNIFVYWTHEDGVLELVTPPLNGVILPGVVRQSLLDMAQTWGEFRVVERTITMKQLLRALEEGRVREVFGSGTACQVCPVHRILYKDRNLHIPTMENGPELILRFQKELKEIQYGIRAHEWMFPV
Outline: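 Medium 13C6-KMV formation is read by LC-MS/MS after PFBHA derivatization with d8-KMV internal standard. Cells are CRISPR MUT/BCAT1 double-knockout A549 expressing endogenous BCAT2, given compound 15 min before labelled isoleucine (800 uM, added 1:1) for 24 h. CTG viability run in parallel; replicates averaged.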

BCAT2 [2] = target: T1, BCAT2; assay: BCAT2 in vitro enzyme inhibition assay (hBCAT2, glutamate dehydrogenase/diaphorase/resazurin coupled fluorescence read); assay type: biochemical; details: hBCAT2, 1 h preincubation at 25° C., one hour reaction; average where tested multiple times
Outline: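 Coupled GDH/diaphorase/resazurin fluorescence (Ex 540/Em 590) read after 1 h reaction at 25 °C, SDS-stopped; enzyme (0.33 μg/mL in mix) first preincubated 1 h with compound, 10-point 3-fold series from 100 μM final, Tris pH 8.0 buffer with NaCl, BSA; technical duplicates, averaged across tests.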

[3] = read-out: BCAT2 Cell Inhibition (IC50), engineered A549 cells, 24 hours, 13C6-KMV in media, average where tested multiple times

## O=C(N[C@H]1CCC[C@@H](n2c(-c3ccccc3F)nc3cnc(-c4nc[nH]n4)cc32)C1)c1cc(Cl)ccc1OC1CCOC1 (stereo partly drawn) [Example 83, 5-chloro-N-((1S,3R)-3-(2-(2-fluorophenyl)-6-(1H-1,2,4-triazol-3-yl)-1H-imidazo[4,5-c]pyridin-1-yl)cyclohexyl)-2-((tetrahydrofuran-3-yl)oxy)benzamide]
BCAT2 [1]
  IC50: < 100 nM
BCAT2 [2]
  IC50: < 100 nM

## O=C(N[C@H]1CCC[C@@H](n2c(-c3ccccc3OCCO)nc3cnc(-c4nc[nH]n4)cc32)C1)c1cc(F)ccc1F [Example 85, 2,5-difluoro-N-((1S,3R)-3-(2-(2-(2-hydroxyethoxy)phenyl)-6-(1H-1,2,4-triazol-3-yl)-1H-imidazo[4,5-c]pyridin-1-yl)cyclohexyl)benzamide]
BCAT2 [1]
  IC50: 100 to 500 nM
BCAT2 [2]
  IC50: < 100 nM

## O=C(N[C@H]1CCC[C@@H](n2c(-c3ccccc3OCCO)nc3cnc(-c4nc[nH]n4)cc32)C1)c1cc(Cl)ccc1F [Example 86, 5-chloro-2-fluoro-N-((1S,3R)-3-(2-(2-(2-hydroxyethoxy)phenyl)-6-(1H-1,2,4-triazol-3-yl)-1H-imidazo[4,5-c]pyridin-1-yl)cyclohexyl)benzamide]
BCAT2 [1]
  IC50: 100 to 500 nM
BCAT2 [2]
  IC50: < 100 nM

## CC(Oc1ccc(Cl)cc1C(=O)N[C@H]1CCC[C@@H](n2c(-c3ccccc3F)nc3cnc(-c4nc[nH]n4)cc32)C1)C(F)(F)F (stereo partly drawn) [Example 88, 5-chloro-N-((1S,3R)-3-(2-(2-fluorophenyl)-6-(1H-1,2,4-triazol-3-yl)-1H-imidazo[4,5-c]pyridin-1-yl)cyclohexyl)-2-((1,1,1-trifluoropropan-2-yl)oxy)benzamide]
BCAT2 [1]
  IC50: 100 to 500 nM
BCAT2 [2]
  IC50: < 100 nM

## O=C(N[C@H]1CCC[C@@H](n2c(-c3ccccc3F)nc3cnc(-c4nc[nH]n4)cc32)C1)c1cc(Cl)ccc1OC(CO)CO [Example 90, 5-chloro-2-((1,3-dihydroxypropan-2-yl)oxy)-N-((1S,3R)-3-(2-(2-fluorophenyl)-6-(1H-1,2,4-triazol-3-yl)-1H-imidazo[4,5-c]pyridin-1-yl)cyclohexyl)benzamide]
BCAT2 [1]
  IC50: 100 to 500 nM
BCAT2 [2]
  IC50: < 100 nM

## Cc1coc(-c2cc3c(cn2)nc(-c2ccccc2C#N)n3[C@@H]2CCC[C@H](NC(=O)c3cc(F)ccc3F)C2)n1 [Example 93, N-((1S,3R)-3-(2-(2-cyanophenyl)-6-(4-methyloxazol-2-yl)-1H-imidazo[4,5-c]pyridin-1-yl)cyclohexyl)-2,5-difluorobenzamide]
BCAT2 [1]
  IC50: 100 to 500 nM
BCAT2 [2]
  IC50: < 100 nM

## N#Cc1ccc(F)cc1C(=O)N[C@H]1CCC[C@@H](n2c(-c3ccccc3F)nc3cnc(-c4nc[nH]n4)cc32)C1 [Example 98, 2-cyano-5-fluoro-N-((1S,3R)-3-(2-(2-fluorophenyl)-6-(4H-1,2,4-triazol-3-yl)-1H-imidazo[4,5-c]pyridin-1-yl)cyclohexyl)benzamide]
BCAT2 [1]
  IC50: < 100 nM
BCAT2 [2]
  IC50: < 100 nM

## COc1ccc(Cl)cc1C(=O)N[C@H]1CCC[C@@H](n2c(-c3ccccc3F)nc3cnc(-c4nc[nH]n4)cc32)[C@@H]1O [Example 102, 5-chloro-N-((1S,2R,3R)-3-(2-(2-fluorophenyl)-6-(1H-1,2,4-triazol-3-yl)-1H-imidazo[4,5-c]pyridin-1-yl)-2-hydroxycyclohexyl)-2-methoxybenzamide]
BCAT2 [1]
  IC50: < 100 nM
BCAT2 [2]
  IC50: < 100 nM

## COc1ccc(Cl)cc1C(=O)N[C@@H]1CCCC[C@H](n2c(-c3ccccc3F)nc3cnc(-c4nc[nH]n4)cc32)[C@H]1O [Example 104, 5-chloro-N-((1R,2S,3S)-3-(2-(2-fluorophenyl)-6-(1H-1,2,4-triazol-3-yl)-1H-imidazo[4,5-c]pyridin-1-yl)-2-hydroxycycloheptyl)-2-methoxybenzamide]
BCAT2 [1]; [3]
  IC50: > 1000 nM
BCAT2 [2]
  IC50: 500 to 1000 nM

## COc1ccc(Cl)cc1C(=O)N[C@H]1CCCC[C@@H](n2c(-c3ccccc3F)nc3cnc(-c4nc[nH]n4)cc32)[C@@H]1O [Example 105, 5-chloro-N-((1S,2R,3R)-3-(2-(2-fluorophenyl)-6-(1H-1,2,4-triazol-3-yl)-1H-imidazo[4,5-c]pyridin-1-yl)-2-hydroxycycloheptyl)-2-methoxybenzamide]
BCAT2 [1]
  IC50: < 100 nM
BCAT2 [2]
  IC50: < 100 nM

## COc1ccc(Cl)cc1C(=O)N[C@H]1C[C@H](OC)C[C@@H](n2c(-c3ccccc3F)nc3cnc(-c4nc[nH]n4)cc32)C1 [Example 106, 5-chloro-N-((1R,3S,5S)-3-(2-(2-fluorophenyl)-6-(1H-1,2,4-triazol-3-yl)-1H-imidazo[4,5-c]pyridin-1-yl)-5-methoxycyclohexyl)-2-methoxybenzamide]
BCAT2 [1]
  IC50: < 100 nM
BCAT2 [2]
  IC50: < 100 nM

## CO[C@H]1C[C@H](NC(=O)c2cc(F)ccn2)C[C@H](n2c(-c3ccccc3F)nc3cnc(-c4nc[nH]n4)cc32)C1 [Example 113, 4-fluoro-N-((1R,3S,5S)-3-(2-(2-fluorophenyl)-6-(1H-1,2,4-triazol-3-yl)-1H-imidazo[4,5-c]pyridin-1-yl)-5-methoxycyclohexyl)picolinamide]
BCAT2 [1]
  IC50: < 100 nM
BCAT2 [2]
  IC50: < 100 nM

## CO[C@@H]1C[C@H](NC(=O)c2cc(F)ccn2)C[C@H](n2c(-c3ccccc3F)nc3cnc(-c4nc[nH]n4)cc32)C1 [Example 114, 4-fluoro-N-((1R,3S,5R)-3-(2-(2-fluorophenyl)-6-(1H-1,2,4-triazol-3-yl)-1H-imidazo[4,5-c]pyridin-1-yl)-5-methoxycyclohexyl)picolinamide]
BCAT2 [1]
  IC50: < 100 nM
BCAT2 [2]
  IC50: < 100 nM

## CO[C@H]1C[C@H](NC(=O)c2cc(Cl)ccn2)C[C@H](n2c(-c3ccccc3F)nc3cnc(-c4nc[nH]n4)cc32)C1 [Example 116, 4-chloro-N-((1R,3S,5S)-3-(2-(2-fluorophenyl)-6-(1H-1,2,4-triazol-3-yl)-1H-imidazo[4,5-c]pyridin-1-yl)-5-methoxycyclohexyl)picolinamide]
BCAT2 [1]
  IC50: < 100 nM
BCAT2 [2]
  IC50: < 100 nM

## CO[C@H]1C[C@H](NC(=O)c2cc(Cl)ccn2)C[C@H](n2c(CC(C)C)nc3cnc(-c4ncccn4)cc32)C1 [Example 117, 4-chloro-N-((1R,3S,5S)-3-(2-isobutyl-6-(pyrimidin-2-yl)-1H-imidazo[4,5-c]pyridin-1-yl)-5-methoxycyclohexyl)picolinamide]
BCAT2 [1]
  IC50: 500 to 1000 nM
BCAT2 [2]
  IC50: < 100 nM

## CO[C@H]1C[C@H](NC(=O)c2cc(Cl)ccc2OCCO)C[C@H](n2c(-c3ccccc3F)nc3cnc(-c4nc[nH]n4)cc32)C1 [Example 119, 5-chloro-N-((1R,3S,5S)-3-(2-(2-fluorophenyl)-6-(1H-1,2,4-triazol-3-yl)-1H-imidazo[4,5-c]pyridin-1-yl)-5-methoxycyclohexyl)-2-(2-hydroxyethoxy)benzamide]
BCAT2 [1]
  IC50: < 100 nM
BCAT2 [2]
  IC50: < 100 nM

## O=C(N[C@H]1CCC[C@@H](n2c(-c3ccccc3F)nc3cnc(-c4nc[nH]n4)cc32)[C@@H]1O)c1cc(F)ccc1F [Example 120, 2,5-difluoro-N-((1S,2R,3R)-3-(2-(2-fluorophenyl)-6-(1H-1,2,4-triazol-3-yl)-1H-imidazo[4,5-c]pyridin-1-yl)-2-hydroxycyclohexyl)benzamide]
BCAT2 [1]
  IC50: < 100 nM
BCAT2 [2]
  IC50: < 100 nM

## CO[C@H]1C[C@H](NC(=O)c2cc(F)ccc2F)C[C@H](n2c(-c3ccccc3F)nc3cnc(-c4nc[nH]n4)cc32)C1 [Example 122, 2,5-difluoro-N-((1R,3S,5S)-3-(2-(2-fluorophenyl)-6-(1H-1,2,4-triazol-3-yl)-1H-imidazo[4,5-c]pyridin-1-yl)-5-methoxycyclohexyl)benzamide]
BCAT2 [1]
  IC50: < 100 nM
BCAT2 [2]
  IC50: < 100 nM

## CN1C[C@@H](NC(=O)c2cc(Cl)ccn2)C[C@@H](n2c(-c3ccccc3F)nc3cnc(-c4nc[nH]n4)cc32)C1 [Example 129, 4-chloro-N-((3S,5R)-5-(2-(2-fluorophenyl)-6-(1H-1,2,4-triazol-3-yl)-1H-imidazo[4,5-c]pyridin-1-yl)-1-methylpiperidin-3-yl)picolinamide]
BCAT2 [1]; [3]
  IC50: > 1000 nM
BCAT2 [2]
  IC50: 100 to 500 nM

## CN1C[C@H](NC(=O)c2cc(Cl)ccn2)C[C@H](n2c(-c3ccccc3F)nc3cnc(-c4nc[nH]n4)cc32)C1 [Example 130, 4-chloro-N-((3R,5S)-5-(2-(2-fluorophenyl)-6-(1H-1,2,4-triazol-3-yl)-1H-imidazo[4,5-c]pyridin-1-yl)-1-methylpiperidin-3-yl)picolinamide]
BCAT2 [1]
  IC50: < 100 nM
BCAT2 [2]
  IC50: < 100 nM

## CN1C[C@H](NC(=O)c2cc(Cl)ccn2)C[C@H](n2c(-c3ncccc3F)nc3cnc(-c4nc[nH]n4)cc32)C1 [Example 132, 4-chloro-N-((3R,5S)-5-(2-(3-fluoropyridin-2-yl)-6-(1H-1,2,4-triazol-3-yl)-1H-imidazo[4,5-c]pyridin-1-yl)-1-methylpiperidin-3-yl)picolinamide]
BCAT2 [1]; [3]
  IC50: > 1000 nM
BCAT2 [2]
  IC50: < 100 nM

## CN1C[C@@H](NC(=O)c2cc(F)ccn2)C[C@@H](n2c(-c3ccccc3F)nc3cnc(-c4nc[nH]n4)cc32)C1 [Example 133, 4-fluoro-N-((3S,5R)-5-(2-(2-fluorophenyl)-6-(1H-1,2,4-triazol-3-yl)-1H-imidazo[4,5-c]pyridin-1-yl)-1-methylpiperidin-3-yl)picolinamide]
BCAT2 [1]; [3]
  IC50: > 1000 nM
BCAT2 [2]
  IC50: 100 to 500 nM
